Experiments:
[1] = system: velvetleaf; assay: Test B pre/postemergence velvetleaf; format: in vivo, Abutilon theophrasti
How it was run: (§1)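 Response is a visual 0-to-10 score relative to untreated plants, where 0 means no effect and 10 means complete control, taken twelve to sixteen days after application. Treatments went onto soil at planting and onto foliage of 1- to 4-leaf plants, using a surfactant-containing non-phytotoxic solvent.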

[2] = system: rape; assay: Test B pre/postemergence rape; format: in vivo, Brassica napus
How it was run: as §1

[3] = system: corn; assay: Test B pre/postemergence corn; format: in vivo, Zea mays
How it was run: as §1

[4] = system: crabgrass; assay: Test B pre/postemergence crabgrass; format: in vivo, Digitaria sanguinalis
How it was run: as §1

[5] = system: giant foxtail; assay: Test B pre/postemergence giant foxtail; format: in vivo, Setaria faberii
How it was run: as §1

[6] = system: pigweed; assay: Test B pre/postemergence pigweed; format: in vivo, Amaranthus retroflexus
How it was run: as §1

[7] = system: soybean; assay: Test B pre/postemergence soybean; format: in vivo, Glycine max
How it was run: as §1

[8] = system: surinam grass; assay: Test B pre/postemergence surinam grass; format: in vivo, Brachiaria decumbens
How it was run: as §1

[9] = system: wheat; assay: Test B pre/postemergence wheat; format: in vivo, Triticum aestivum
How it was run: as §1

[10] = system: bedstraw; assay: Test B pre/postemergence bedstraw; format: in vivo, Galium aparine
How it was run: as §1

[11] = system: blackgrass; assay: Test B pre/postemergence blackgrass; format: in vivo, Alopecurus myosuroides
How it was run: as §1

[12] = system: sugar beet; assay: Test B pre/postemergence sugar beet; format: in vivo, Beta vulgaris
How it was run: as §1

[13] = system: cocklebur; assay: Test B pre/postemergence cocklebur; format: in vivo, Xanthium strumarium
How it was run: as §1

[14] = system: morningglory; assay: Test B pre/postemergence morningglory; format: in vivo, Ipomoea hederacea
How it was run: as §1

[15] = system: wild oat; assay: Test B pre/postemergence wild oat; format: in vivo, Avena fatua
How it was run: as §1

[16] = system: purple nutsedge; assay: Test B pre/postemergence purple nutsedge; format: in vivo, Cyperus rotundus
How it was run: as §1

[17] = Postemergence, Rate 62 g/ha, scale 0 to 10, 0 is no effect, 10 is complete control
[18] = Postemergence, Rate 125 g/ha, scale of 0 to 10 where 0 is no effect and 10 is complete control
[19] = Preemergence, Rate 125 g/ha, scale of 0 to 10 where 0 is no effect and 10 is complete control
[20] = Preemergence, Rate 250 g/ha, scale 0 (no effect) to 10 (complete control)
[21] = Rate 62 g/ha, Preemergence, scale 0 to 10
[22] = Rate 250 g/ha, Postemergence, scale 0 to 10, 0 is no effect, 10 is complete control
[23] = Rate 500 g/ha, Postemergence, scale 0 to 10, 0 is no effect, 10 is complete control
[24] = Rate 500 g/ha, Preemergence, scale 0 to 10 (0 no effect, 10 complete control)

## CC(C)N(C(=O)n1oc(=O)n(CC(F)F)c1=O)c1ccc(Cl)cc1 [Compound 745]
[1]; [17]
  Plant response rating, Velvetleaf: 0
[1]; [18]
  Velvetleaf plant response rating: 0
[1]; [19]
  Plant response rating, Velvetleaf: 0
[1]; [20]
  Velvetleaf plant response rating: 4
[1]; [21]
  Velvetleaf plant response rating: 0
[1]; [22]
  Velvetleaf plant response rating: 3
[1]; [23]
  Velvetleaf plant response rating: 7
[1]; [24]
  Velvetleaf plant response rating: 6
[2]; [17]
  Plant response rating, Rape: 0
[2]; [18]
  Rape plant response rating: 0
[2]; [19]
  Plant response rating, Rape: 5
[2]; [20]
  Rape plant response rating: 7
[2]; [21]
  Rape plant response rating: 0
[2]; [22]
  Rape plant response rating: 5
[2]; [23]
  Rape plant response rating: 7
[2]; [24]
  Rape plant response rating: 7
[3]; [17]
  Plant response rating, Corn: 0
[3]; [18]
  Corn plant response rating: 0
[3]; [19]
  Plant response rating, Corn: 0
[3]; [20]
  Corn plant response rating: 2
[3]; [21]
  Corn plant response rating: 0
[3]; [22]
  Corn plant response rating: 0
[3]; [23]
  Corn plant response rating: 0
[3]; [24]
  Corn plant response rating: 2
[4]; [17]
  Plant response rating, Crabgrass: 4
[4]; [18]
  Crabgrass plant response rating: 4
[4]; [19]
  Plant response rating, Crabgrass: 10
[4]; [20]
  Crabgrass plant response rating: 10
[4]; [21]
  Crabgrass plant response rating: 7
[4]; [22]
  Crabgrass plant response rating: 9
[4]; [23]
  Crabgrass plant response rating: 9
[4]; [24]
  Crabgrass plant response rating: 10
[5]; [17]
  Plant response rating, Giant foxtail: 2
[5]; [18]
  Giant foxtail plant response rating: 2
[5]; [19]
  Plant response rating, Giant foxtail: 10
[5]; [20]
  Giant foxtail plant response rating: 10
[5]; [21]
  Giant foxtail plant response rating: 10
[5]; [22]
  Giant foxtail plant response rating: 9
[5]; [23]
  Giant foxtail plant response rating: 9
[5]; [24]
  Giant foxtail plant response rating: 10
[6]; [17]
  Plant response rating, Redroot pigweed: 2
[6]; [18]
  Redroot pigweed plant response rating: 2
[6]; [19]
  Plant response rating, Redroot pigweed: 9
[6]; [20]
  Redroot pigweed plant response rating: 10
[6]; [21]
  Redroot pigweed plant response rating: 7
[6]; [22]
  Redroot pigweed plant response rating: 5
[6]; [23]
  Redroot pigweed plant response rating: 6
[6]; [24]
  Redroot pigweed plant response rating: 10
[7]; [17]
  Plant response rating, Soybean: 3
[7]; [18]
  Soybean plant response rating: 3
[7]; [19]
  Plant response rating, Soybean: 0
[7]; [20]
  Soybean plant response rating: 0
[7]; [21]
  Soybean plant response rating: 0
[7]; [22]
  Soybean plant response rating: 5
[7]; [23]
  Soybean plant response rating: 5
[7]; [24]
  Soybean plant response rating: 0
[8]; [17]
  Plant response rating, B. signalgrass: 0
[8]; [18]
  B. signalgrass plant response rating: 0
[8]; Preemergence, Rate 62 g/ha, scale of 0 to 10 where 0 is no effect and 10 is complete control
  B. signalgrass plant response rating: 8
[8]; [19]
  Plant response rating, B. signalgrass: 9
[8]; [20]
  B. signalgrass plant response rating: 10
[8]; [22]
  B. signalgrass plant response rating: 6
[8]; [23]
  B. signalgrass plant response rating: 6
[8]; [24]
  B. signalgrass plant response rating: 10
[9]; [17]
  Plant response rating, Wheat: 0
[9]; [18]
  Wheat plant response rating: 0
[9]; [19]
  Plant response rating, Wheat: 0
[9]; [20]
  Wheat plant response rating: 0
[9]; [21]
  Wheat plant response rating: 0
[9]; [22]
  Wheat plant response rating: 0
[9]; [23]
  Wheat plant response rating: 3
[9]; [24]
  Wheat plant response rating: 0
[10]; [20]
  Bedstraw plant response rating: 5
[10]; [21]
  Bedstraw plant response rating: 0
[10]; [22]
  Bedstraw plant response rating: 7
[10]; [23]
  Bedstraw plant response rating: 9
[10]; [24]
  Bedstraw plant response rating: 5
[11]; [17]
  Plant response rating, Blackgrass: 3
[11]; [18]
  Blackgrass plant response rating: 3
[11]; [19]
  Plant response rating, Blackgrass: 6
[11]; [20]
  Blackgrass plant response rating: 9
[11]; [21]
  Blackgrass plant response rating: 3
[11]; [22]
  Blackgrass plant response rating: 8
[11]; [23]
  Blackgrass plant response rating: 9
[11]; [24]
  Blackgrass plant response rating: 9
[12]; [17]
  Plant response rating, Sugarbeets: 2
[12]; [18]
  Sugarbeets plant response rating: 2
[12]; [19]
  Plant response rating, Sugarbeets: 4
[12]; [20]
  Sugarbeets plant response rating: 4
[12]; [21]
  Sugarbeets plant response rating: 0
[12]; [22]
  Sugarbeets plant response rating: 4
[12]; [23]
  Sugarbeets plant response rating: 4
[12]; [24]
  Sugarbeets plant response rating: 4
[13]; [17]
  Plant response rating, Cocklebur: 0
[13]; [18]
  Cocklebur plant response rating: 0
[13]; [19]
  Plant response rating, Cocklebur: 0
[13]; [20]
  Cocklebur plant response rating: 0
[13]; [21]
  Cocklebur plant response rating: 0
[13]; [22]
  Cocklebur plant response rating: 0
[13]; [23]
  Cocklebur plant response rating: 4
[13]; [24]
  Cocklebur plant response rating: 0
[14]; [17]
  Plant response rating, Morningglory: 3
[14]; [18]
  Morningglory plant response rating: 3
[14]; [19]
  Plant response rating, Morningglory: 0
[14]; [20]
  Morningglory plant response rating: 0
[14]; [21]
  Morningglory plant response rating: 0
[14]; [22]
  Morningglory plant response rating: 3
[14]; [23]
  Morningglory plant response rating: 8
[14]; [24]
  Morningglory plant response rating: 3
[15]; [17]
  Plant response rating, Wild oats: 0
[15]; [18]
  Wild oats plant response rating: 0
[15]; [19]
  Plant response rating, Wild oats: 6
[15]; [20]
  Wild oats plant response rating: 8
[15]; [21]
  Wild oats plant response rating: 2
[15]; [22]
  Wild oats plant response rating: 4
[15]; [23]
  Wild oats plant response rating: 4
[15]; [24]
  Wild oats plant response rating: 8
[16]; [17]
  Plant response rating, Nutsedge: 0
[16]; [18]
  Nutsedge plant response rating: 0
[16]; [20]
  Nutsedge plant response rating: 0
[16]; [21]
  Nutsedge plant response rating: 0
[16]; [22]
  Nutsedge plant response rating: 0
[16]; [23]
  Nutsedge plant response rating: 0
[16]; [24]
  Nutsedge plant response rating: 5

— patent US6737383B1, “Herbicidal oxadiazolidines” (priority 1999, dated 2004)
